Laboratory results: ChEMBL document CHEMBL1201862, “PubChem BioAssay data set” (2004)
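Tested at 5 concentrations; 48 h exposure; 96-well plates; endpoints linearly interpolated, else capped at highest concentration. The concentration for 50% growth inhibition is given as GI50.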 Calls of active or inactive are those of the source. Rule as the data show it: active = GI50 up to about 1.1 µM and inactive = higher. Where a SMILES comes first, the peptide text is derived from it. [ ]: non-standard residue; d: D form. The star is where a group is joined. Bn2Val = CC(C)[C@@H](C(=O)*)N(Cc1ccccc1)Cc1ccccc1; NH(4-F-benzyl) = Fc1ccc(CN*)cc1; NMeV = CN[C@H](C(=O)O)C(C)C; dNMeA = CN[C@H](C)C(=O)O

Experiments:
Assay in all cases: NCI-60 cell line screen, 48 h
786-0 = system: 786-0
ACHN = system: ACHN
BT-549 = system: BT-549
DU-145 = system: DU-145
EKVX = system: EKVX
Hs-578T = system: Hs-578T
K562 = system: K562
NCI-H226 = system: NCI-H226
NCI-H522 = system: NCI-H522
OVCAR-3 = system: OVCAR-3
OVCAR-4 = system: OVCAR-4
PC-3 = system: PC-3
SF-268 = system: SF-268
SK-MEL-2 = system: SK-MEL-2
SR = system: SR
SW-620 = system: SW-620
T47D = system: T47D
UACC-257 = system: UACC-257
UACC-62 = system: UACC-62
DMS-273 = system: DMS-273

Structure (SMILES) | GI50 (786-0) | GI50 (ACHN) | GI50 (BT-549) | GI50 (DU-145) | GI50 (EKVX) | GI50 (Hs-578T) | GI50 (K562) | GI50 (NCI-H226) | GI50 (NCI-H522) | GI50 (OVCAR-3) | GI50 (OVCAR-4) | GI50 (PC-3) | GI50 (SF-268) | GI50 (SK-MEL-2) | GI50 (SR) | GI50 (SW-620) | GI50 (T47D) | GI50 (UACC-257) | GI50 (UACC-62) | GI50 (DMS-273)
COc1ccc2nc(-c3cccc(N(C)C)c3)cc(O)c2c1 | 0.408 µM (active) | 0.618 µM (active) | 1.15 µM (inactive) | 0.384 µM (active) | 1.55 µM (inactive) | 0.188 µM (active) | 0.242 µM (active) | 0.266 µM (active) | 0.204 µM (active) | 0.169 µM (active) | 5.64 µM (inactive) | 0.362 µM (active) | 0.378 µM (active) | 0.314 µM (active) | 0.142 µM (active) | 0.264 µM (active) | > 10 µM (inactive) | 0.485 µM (active) | 0.252 µM (active) | 
COC(=O)c1c(C)cccc1C1CN=NC12Cc1ccccc1C2=O (centres undefined) | > 100 µM (inactive) | > 100 µM (inactive) | 54.5 µM (inactive) | > 100 µM (inactive) | > 93.5 µM (inactive) | 96.2 µM (inactive) | 37.1 µM (inactive) | > 83.4 µM (inactive) | 43.5 µM (inactive) | 15.7 µM (inactive) | > 92.3 µM (inactive) | 78.5 µM (inactive) | > 53 µM (inactive) | > 100 µM (inactive) | 47.2 µM (inactive) | > 100 µM (inactive) | 38.1 µM (inactive) | 36.1 µM (inactive) | 74.6 µM (inactive) | 
CC1=C(C#N)C(N)=C2C(C)=C(C#N)C(N)=C12 | > 100 µM (inactive) |  |  |  | > 100 µM (inactive) |  | > 100 µM (inactive) | > 100 µM (inactive) | > 100 µM (inactive) | > 100 µM (inactive) | > 100 µM (inactive) |  | > 100 µM (inactive) |  | > 100 µM (inactive) | > 100 µM (inactive) |  | > 100 µM (inactive) | > 100 µM (inactive) | > 100 µM (inactive)
COc1ccc2[nH]c3c(C)c4ccnc(NCCCN(C)CCCNC(=O)NCCCN(C)CCCNc5nccc6c(C)c7[nH]c8ccc(OC)cc8c7c(C)c56)c4c(C)c3c2c1 | 0.233 µM (active) | 0.352 µM (active) | 1.62 µM (inactive) | 1.19 µM (inactive) | 0.925 µM (active) | 0.977 µM (active) | 0.23 µM (active) | 0.526 µM (active) | 0.226 µM (active) | 1.29 µM (inactive) | 0.596 µM (active) | 0.92 µM (active) | 0.551 µM (active) | 1.35 µM (inactive) | 0.102 µM (active) | 0.202 µM (active) | 0.69 µM (active) | 1.6 µM (inactive) | 1.33 µM (inactive) | 
CC1OC(OC2C(CO)OC(O[C@H]3CC[C@@]4(C)C(=CC[C@H]5[C@@H]6C[C@@H]7O[C@](O)(CC[C@H](C)COC8OC(CO)C(O)C(O)C8O)[C@@H](C)[C@@H]7[C@@]6(C)CC[C@@H]54)C3)C(OC3OC(C)C(O)C(O)C3O)C2O)C(O)C(O)C1O (some centres undefined) | 2.52 µM (inactive) | 14.3 µM (inactive) | 4.48 µM (inactive) | 2.35 µM (inactive) | 17.1 µM (inactive) | 2.63 µM (inactive) | 2.8 µM (inactive) | 9.62 µM (inactive) | 2.88 µM (inactive) | 8.2 µM (inactive) | 7.96 µM (inactive) | 4.48 µM (inactive) | 3.36 µM (inactive) | 6.21 µM (inactive) | > 100 µM (inactive) | 0.644 µM (active) | 3.51 µM (inactive) | 6.64 µM (inactive) | 5.42 µM (inactive) | 
CCOC(=O)C1S/C(=N\c2ccc(Cl)c(Cl)c2)N=C1C (centres undefined) | 17.5 µM (inactive) | 29.5 µM (inactive) |  |  | > 100 µM (inactive) |  | 13.4 µM (inactive) | 23.4 µM (inactive) | 24.7 µM (inactive) | 17.9 µM (inactive) | 20.3 µM (inactive) |  | 54.6 µM (inactive) | 95.1 µM (inactive) |  | 38 µM (inactive) |  | 87.1 µM (inactive) | 96.8 µM (inactive) | 41.2 µM (inactive)
Cc1cn(C2CC(n3cncn3)C(C(C)O)O2)c(=O)[nH]c1=O (centres undefined) | > 100 µM (inactive) | > 100 µM (inactive) |  |  | > 100 µM (inactive) |  | > 100 µM (inactive) | > 100 µM (inactive) | > 100 µM (inactive) | > 100 µM (inactive) | > 100 µM (inactive) |  | > 100 µM (inactive) | > 100 µM (inactive) |  | > 100 µM (inactive) |  | > 100 µM (inactive) | > 100 µM (inactive) | > 100 µM (inactive)
Nc1[nH]c(=S)[nH]c(=O)c1/N=N/c1c(Br)cc(S(N)(=O)=O)cc1Br | > 100 µM (inactive) | > 100 µM (inactive) | > 100 µM (inactive) | > 100 µM (inactive) | > 100 µM (inactive) | > 100 µM (inactive) | > 100 µM (inactive) | > 100 µM (inactive) | > 100 µM (inactive) | > 100 µM (inactive) | > 100 µM (inactive) | > 100 µM (inactive) | > 100 µM (inactive) | > 100 µM (inactive) | > 100 µM (inactive) | > 100 µM (inactive) | > 100 µM (inactive) | > 100 µM (inactive) | > 100 µM (inactive) | 
NCCCN(CCCN)CCc1cn(C(=O)c2ccccc2)cn1 | 8.59 µM (inactive) | 6.5 µM (inactive) | 12.5 µM (inactive) | 4.32 µM (inactive) | 7.21 µM (inactive) | 11.4 µM (inactive) | 3.61 µM (inactive) | 9.64 µM (inactive) | 10 µM (inactive) | 2.69 µM (inactive) | 4.93 µM (inactive) | 8.63 µM (inactive) | 7.8 µM (inactive) | 9.1 µM (inactive) | 2.24 µM (inactive) | 10.2 µM (inactive) | 4.85 µM (inactive) | 9.2 µM (inactive) | 8.57 µM (inactive) | 
Cn1cnc([N+](=O)[O-])c1Sc1nc2cccnc2[nH]1 | > 100 µM (inactive) | > 100 µM (inactive) |  |  | 28.5 µM (inactive) |  | 22.8 µM (inactive) | > 100 µM (inactive) |  | > 100 µM (inactive) | 41.1 µM (inactive) |  | 74.8 µM (inactive) |  | 35.9 µM (inactive) | 49.9 µM (inactive) |  | 91.2 µM (inactive) | 67.6 µM (inactive) | 1.61 µM (inactive)
CC(C)(C)NN=C1C(C)(C)C(=NNC(C)(C)C)C1(C)C | > 100 µM (inactive) | > 100 µM (inactive) |  |  |  |  | > 100 µM (inactive) | > 100 µM (inactive) | > 100 µM (inactive) | > 100 µM (inactive) | > 100 µM (inactive) |  | > 100 µM (inactive) |  | > 100 µM (inactive) | > 100 µM (inactive) |  | > 100 µM (inactive) | > 100 µM (inactive) | > 100 µM (inactive)
C/C(CN1C(=O)c2ccccc2C1=O)=N\NS(C)(=O)=O | > 100 µM (inactive) | > 100 µM (inactive) |  |  | > 100 µM (inactive) |  | > 100 µM (inactive) | > 100 µM (inactive) | > 100 µM (inactive) | > 100 µM (inactive) | > 100 µM (inactive) |  | > 100 µM (inactive) | > 100 µM (inactive) |  | > 100 µM (inactive) |  | > 100 µM (inactive) | > 100 µM (inactive) | > 100 µM (inactive)
O=C(O)CCSC(=O)Nc1cccc2ccccc12 | > 100 µM (inactive) | > 100 µM (inactive) |  |  | > 100 µM (inactive) |  | > 100 µM (inactive) | > 100 µM (inactive) |  | > 100 µM (inactive) | > 100 µM (inactive) |  | > 100 µM (inactive) |  | > 100 µM (inactive) | > 100 µM (inactive) |  | > 100 µM (inactive) | > 100 µM (inactive) | > 100 µM (inactive)
N/C(=N\N=C=C1C(=O)Nc2ccc(F)cc21)NO | > 100 µM (inactive) | 59.8 µM (inactive) |  |  | 95.5 µM (inactive) |  | 95.9 µM (inactive) |  | 86.1 µM (inactive) | > 100 µM (inactive) | > 100 µM (inactive) |  | > 100 µM (inactive) | > 100 µM (inactive) | > 100 µM (inactive) | > 100 µM (inactive) |  | > 100 µM (inactive) | 39.3 µM (inactive) | > 100 µM (inactive)
CCO/C=C\C12CCCC1NC(c1ccccc1)(c1ccccc1)O2 (centres undefined) | 32.7 µM (inactive) | 30.3 µM (inactive) |  |  | 43.9 µM (inactive) |  | 20.1 µM (inactive) | 43.8 µM (inactive) | 33.7 µM (inactive) | 27.9 µM (inactive) | 35.8 µM (inactive) |  | 35.8 µM (inactive) | 23.2 µM (inactive) |  | 38.4 µM (inactive) |  | 27.5 µM (inactive) | 21.7 µM (inactive) | 32.7 µM (inactive)
COC1=CC(=O)C2C(C1=O)C(c1ccc(Cl)cc1)[C@@H]2C (some centres undefined) | 24.4 µM (inactive) | 17.3 µM (inactive) |  |  | 26.3 µM (inactive) |  | 28.3 µM (inactive) | 22.1 µM (inactive) | 15.2 µM (inactive) | 34.6 µM (inactive) | 42.4 µM (inactive) |  | 33 µM (inactive) | 37.4 µM (inactive) |  | 27.4 µM (inactive) |  | 20.6 µM (inactive) | 24.7 µM (inactive) | 41 µM (inactive)
CC(C)[C@H](NC(=O)[C@H](C(C)C)N(Cc1ccccc1)Cc1ccccc1)C(=O)N(C)[C@H](C(=O)N1CCC[C@H]1C(=O)N(C)[C@H](C)C(=O)NCc1ccc(F)cc1)C(C)C (Bn2Val-V[NMeV]P[dNMeA]-{NH(4-F-benzyl)}) | 4.23 µM (inactive) | 3.33 µM (inactive) | 4.06 µM (inactive) | 4.88 µM (inactive) | 3.09 µM (inactive) | 4.5 µM (inactive) | 3.78 µM (inactive) | 2.65 µM (inactive) | 3.01 µM (inactive) | 2.88 µM (inactive) | 4.28 µM (inactive) | 3.18 µM (inactive) | 3.19 µM (inactive) | 2.12 µM (inactive) | 2.14 µM (inactive) | 4.25 µM (inactive) | 3.82 µM (inactive) | 5.19 µM (inactive) | 2.96 µM (inactive) | 
